Assay results: US11098090B2, “Mycobacteria tuberculosis chaperonin 60.1 peptides and uses thereof” (Revolo Biotherapeutics Limited, priority 2017, dated 2021)
Entries after “also recorded” stand apart in the source; their conditions may differ. Where no end group is shown, it is not given here.

Key:
[1] = system: LPS induced lung neutrophil influx; test: LPS mouse model of lung inflammation (BAL neutrophil count); type: in vivo; conditions: for efficacy against LPS induced lung neutrophil influx: 50 pg/mouse i.v.
[2] = Plasma stability at 37° C., rat plasma; type: in vitro ADME
Procedure: (§1) Plasma Stability in Mouse, Rat and Human Plasma at 37° C.
(§2) Plasma: mouse (C57 Black 6 Male), rat (Sprague Dawley) and human containing heparin as an anti-coagulant.
(§3) Plasma samples in duplicate were incubated with peptide at 3 μM in a 600 μl volume at 37° C. with shaking. 50 μl aliquots were withdrawn after 2, 5, 30, 60 and 120 mins and quenched into 150 μl of ice-cold methanol containing the internal standard (tolbutamide). Samples were stored at −20° C. for 2 hours to allow protein precipitation. Samples were then centrifuged at 2500×g and the resulting supernatants transferred to a 96 well plate for LC-MS/MS analysis. Thalf was calculated in all matrices for each peptide.

[3] = Plasma stability at 37° C., human plasma; type: in vitro ADME
Procedure: as §1, §2, §3

[4] = Plasma stability at 37° C., mouse plasma; type: in vitro ADME
Procedure: as §1, §2, §3

[5] = Plasma stability, overall statements for mouse, rat and human plasma; type: in vitro ADME; conditions: for plasma stability / half-life (Th) compared with parent peptide SEQ ID NO: 17: rat and human plasma
Procedure: as §1, §2, §3

[6] = system: recruitment of eosinophils; conditions: animal model of allergic airway inflammation; from WO2009106819; cited from earlier work
[7] = Table 4, read-out: Plasma half life Rat
[8] = Table 4, read-out: Plasma half life Man
[9] = Table 4, read-out: Plasma half life Mouse
[10] = Table 7, same conditions as Example 3, read-out: Plasma half life Rat
[11] = Table 7, same conditions as Example 3, read-out: Plasma half life Man
[12] = Table 7, same conditions as Example 3, read-out: Plasma half life Mouse

Molecule: H-DGSVVVNKVSEL-NH2 [SEQ ID NO: 3, DGSVVVNKVSEL-NH2]
- efficacy against LPS induced lung neutrophil influx ([1]; dosed up to 60 mins prior to LPS challenge (FIG. 2)): efficacious
- efficacy against LPS induced lung neutrophil influx ([1]; dosed up to 120 mins post LPS challenge (FIG. 3)): efficacious
- efficacy in the LPS mouse model ([1]; dosed intravenously): effective

Molecule: H-GLNVNTLSYGDLAAD [SEQ ID NO: 23, GLNVNTLSYGDLAAD, reference compound]
- half-life [2, 7]: > 5.13 h
- half-life [3, 8]: > 5.62 h
- half-life [4, 9]: 1.03 h

Molecule: CC(=O)N[C@H](CC(=O)O)C(=O)NCC(=O)N[C@H](Cc1ccc(O)cc1)C(=O)N[C@H](CO)C(=O)N[C@H](CC(C)C)C(=O)N[C@@H](C(=O)N[C@H](CC(N)=O)C(=O)N[C@@H](C(=O)N[C@H](CC(N)=O)C(=O)N[C@H](CC(C)C)C(=O)NCC(=O)N[C@H](Cc1c[nH]cn1)C(N)=O)C(C)C)[C@H](C)O [SEQ ID NO: 19, Ac-dGysltnvnlGh-NH2]
- plasma stability / half-life (Th) compared with parent peptide SEQ ID NO: 17 [5]: enhanced plasma stability
- half-life [2, 10]: > 6 h
- half-life [3, 11]: > 6 h
- half-life [4, 12]: > 6 h

Molecule: H-DGSVVVNKVSELPAGHGLNVNTLSYGDLAAD [SEQ ID NO: 1, reference compound]
- inhibition of LPS induced lung neutrophil influx ([1]; dosed intravenously immediately prior to LPS challenge): significant inhibition; also recorded: only demonstrates efficacy when dosed immediately prior to LPS challenge
- activity against LPS induced lung neutrophil influx ([1]; i.v., given at earlier (FIG. 1) or later (FIG. 4) time points than LPS challenge): looses its activity
- recruitment of eosinophils [6]: significantly reduce the recruitment of eosinophils

Molecule: H-SELPAGHGLNVNTLS [SEQ ID NO: 5, SELPAGHGLNVNTLS]
- half-life [2, 7]: 1.32 h
- half-life [3, 8]: 1.85 h
- half-life [4, 9]: 0.2 h

Molecule: CC(C)C[C@H](NC(=O)CNC(=O)[C@@H](N)Cc1c[nH]cn1)C(=O)N[C@@H](CC(N)=O)C(=O)N[C@H](C(=O)N[C@@H](CC(N)=O)C(=O)N[C@H](C(=O)N[C@@H](CC(C)C)C(=O)N[C@@H](CO)C(=O)N[C@@H](Cc1ccc(O)cc1)C(=O)NCC(=O)N[C@@H](CC(=O)O)C(N)=O)[C@@H](C)O)C(C)C [SEQ ID NO: 17, HGLNVNTLSYGD-NH2]
- effect on LPS induced lung neutrophil influx (number of neutrophils) ([1]; different doses (0.5, 5 or 50 pg/mouse)): reduction in the number of neutrophils
- half-life ([2]; Table 3, 37° C., peptide 3 μM, read-out: Plasma Half Life (Th) Rat): 0.717 h
- half-life ([3]; Table 3, 37° C., peptide 3 μM, read-out: Plasma Half Life (Th) Man): 1.2 h
- half-life ([4]; Table 3, 37° C., peptide 3 μM, read-out: Plasma Half Life (Th) Mouse): 0.333 h

Molecule: CC(C)C[C@H](NC(=O)CNC(=O)[C@H](N)Cc1c[nH]cn1)C(=O)N[C@@H](CC(N)=O)C(=O)N[C@H](C(=O)N[C@@H](CC(N)=O)C(=O)N[C@H](C(=O)N[C@@H](CC(C)C)C(=O)N[C@@H](CO)C(=O)N[C@@H](Cc1ccc(O)cc1)C(=O)NCC(=O)N[C@H](CC(=O)O)C(N)=O)[C@@H](C)O)C(C)C [SEQ ID NO: 14, hGLNVNTLSYGd-NH2]
- half-life [2, 10]: 2.55 h
- half-life [3, 11]: 2.58 h
- half-life [4, 12]: 0.833 h

Molecule: CC(=O)N[C@H](Cc1c[nH]cn1)C(=O)NCC(=O)N[C@H](CC(C)C)C(=O)N[C@H](CC(N)=O)C(=O)N[C@@H](C(=O)N[C@H](CC(N)=O)C(=O)N[C@@H](C(=O)N[C@H](CC(C)C)C(=O)N[C@H](CO)C(=O)N[C@H](Cc1ccc(O)cc1)C(=O)NCC(=O)N[C@H](CC(=O)O)C(N)=O)[C@H](C)O)C(C)C [SEQ ID NO: 20, Ac-hGlnvntlsyGd-NH2]
- plasma stability / half-life (Th) compared with parent peptide SEQ ID NO: 17 [5]: enhanced plasma stability
- half-life [2, 10]: 3.03 h
- half-life [3, 11]: > 6 h
- half-life [4, 12]: > 6 h

Molecule: CC(C)C[C@H](NC(=O)CNC(=O)[C@@H](N)Cc1c[nH]cn1)C(=O)N[C@@H](CC(N)=O)C(=O)N[C@H](C(=O)N[C@@H](CC(N)=O)C(=O)N[C@H](C(=O)N[C@@H](CC(C)C)C(=O)N[C@@H](CO)C(=O)N[C@@H](Cc1ccc(O)cc1)C(=O)NCC(=O)N[C@H](CC(=O)O)C(N)=O)[C@@H](C)O)C(C)C [SEQ ID NO: 15, HGLNVNTLSYGd-NH2]
- half-life [2, 10]: 3.03 h
- half-life [3, 11]: 1.4 h
- half-life [4, 12]: 0.65 h

Molecule: H-SELPAGHGLNVNTLSYGDLAAD [SEQ ID NO: 4]
- plasma half-life compared with fragment 3 (SEQ ID NO: 5) ([5]; rat and human plasma (Table 5 vs Table 4)): superior half-life
- in vivo efficacy in the mouse LPS lung inflammation model ([1]; 0.5, 5 and 500 pg/dose (FIG. 7)): maintained in vivo efficacy
- half-life ([2]; Table 5, read-out: Plasma half-life Rat): > 6 h
- half-life ([3]; Table 5, read-out: Plasma half-life Man): > 6 h
- half-life ([4]; Table 5, read-out: Plasma half-life Mouse): > 6 h

Molecule: CC(C)C[C@@H]1NC(=O)CNC(=O)[C@H](Cc2c[nH]cn2)NC(=O)[C@H](CC(=O)O)NC(=O)CNC(=O)[C@H](Cc2ccc(O)cc2)NC(=O)[C@H](CO)NC(=O)[C@H](CC(C)C)NC(=O)[C@H]([C@@H](C)O)NC(=O)[C@H](CC(N)=O)NC(=O)[C@H](C(C)C)NC(=O)[C@H](CC(N)=O)NC1=O [SEQ ID NO: 25, cyclic-HGLNVNTLSYGD-]
- plasma stability / half-life (Th) compared with parent peptide SEQ ID NO: 17 [5]: did not improve plasma stability
- half-life [2, 10]: 0.35 h
- half-life [3, 11]: 0.75 h
- half-life [4, 12]: 0.167 h

Molecule: CC(C)C[C@H](NC(=O)CNC(=O)[C@H](N)Cc1c[nH]cn1)C(=O)N[C@@H](CC(N)=O)C(=O)N[C@H](C(=O)N[C@@H](CC(N)=O)C(=O)N[C@H](C(=O)N[C@@H](CC(C)C)C(=O)N[C@@H](CO)C(=O)N[C@@H](Cc1ccc(O)cc1)C(=O)NCC(=O)N[C@@H](CC(=O)O)C(N)=O)[C@@H](C)O)C(C)C [SEQ ID NO: 16, hGLNVNTLSYGD-NH2]
- half-life [2, 10]: 3.33 h
- half-life [3, 11]: 1.85 h
- half-life [4, 12]: 0.583 h
